From US20240124410A1, “SMALL MOLECULES AND THEIR USE AS MALT1 INHIBITORS” (University of Pittsburgh - Of the Commonwealth System of …, priority 2021, published 2024) come the findings set out here.

By IC50 is commonly meant the concentration needed to halve the response being measured.

The target of this assay is T1, BCL10-MALT1 interaction (Homo sapiens, UniProt Q9UDY8).
T1 sequence (Q9UDY8 1-824): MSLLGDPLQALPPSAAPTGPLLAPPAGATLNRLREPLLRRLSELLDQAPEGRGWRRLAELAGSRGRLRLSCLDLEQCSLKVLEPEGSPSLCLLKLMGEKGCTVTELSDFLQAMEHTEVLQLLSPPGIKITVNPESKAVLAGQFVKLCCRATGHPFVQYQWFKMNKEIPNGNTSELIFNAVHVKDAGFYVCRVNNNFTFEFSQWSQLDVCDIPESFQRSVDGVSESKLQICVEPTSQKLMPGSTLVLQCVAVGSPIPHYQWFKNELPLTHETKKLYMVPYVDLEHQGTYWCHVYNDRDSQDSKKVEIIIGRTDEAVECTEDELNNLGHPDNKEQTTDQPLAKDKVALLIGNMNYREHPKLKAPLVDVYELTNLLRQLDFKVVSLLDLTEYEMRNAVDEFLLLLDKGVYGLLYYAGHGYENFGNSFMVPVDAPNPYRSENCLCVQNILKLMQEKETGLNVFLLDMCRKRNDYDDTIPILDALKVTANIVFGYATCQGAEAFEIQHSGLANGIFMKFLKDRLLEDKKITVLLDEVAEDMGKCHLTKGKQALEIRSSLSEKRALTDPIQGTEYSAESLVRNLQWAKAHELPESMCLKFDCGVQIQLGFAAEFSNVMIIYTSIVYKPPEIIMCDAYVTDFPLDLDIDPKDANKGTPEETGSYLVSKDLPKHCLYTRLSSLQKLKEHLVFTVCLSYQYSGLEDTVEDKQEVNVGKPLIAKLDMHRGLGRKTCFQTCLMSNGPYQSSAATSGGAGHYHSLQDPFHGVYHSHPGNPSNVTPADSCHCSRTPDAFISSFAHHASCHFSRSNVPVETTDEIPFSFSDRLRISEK
Description: ELISA-based protein-protein interaction assay, BCL10-MALT1 (FIG. 2F, 2H); His-tagged recombinant human full-length Bcl10 on plate, GST-tagged recombinant human full-length MALT1. The arrangement: GST-tagged recombinant human full-length MALT1 protein; GST; purchased Novus Biologicals H00010892-P01. The conditions noted are these: compound preincubated with 100 ng GST-MALT1 for 1 hour, 100 ng His-Bcl10 on plate, one-site binding fit, read-out: IC50 for inhibition of BCL10-MALT1 binding (ELISA). The text has this:
FIG. 2. In silico screening identifies small molecules targeting the predicted BCL10-binding groove within MALT1 (Ig1-2). (A) We performed a structure-guided in silico screen of 3 million compounds, using the LibDock program from Discovery Studio 3.5, in order to identify candidate molecules that could potentially fit within the identified groove in the MALT1 Ig1-2 domain. Lipinski's rule of five filters (LipinskiRo5) were applied to enrich for compounds with drug-like properties. Potential compound hits were then screened for their ability to disrupt the MALT1-BCL10 interaction using SPR analysis. 9 candidate compounds were then subjected to a second, ELISA-based MALT1-BCL10 interaction assay, identifying 2 compounds that could disrupt the interaction in both SPR and ELISA assays. M1i-124 and M1i-1255 are the two compounds identified to disrupt the BCL10-MALT1 interaction. M1i-124 became our lead compound and M1i-1255 is partially characterized in FIG. 8. (B) Structure of M1i-124. (C) Model of M1i-124 docked onto the MALT1 Ig1-2 domain groove (PDB 3K0W). […] (E) SPR analysis was performed to determine the IC50 for M1i-124 disruption of the BCL10-MALT1 interaction in a dose-response assay. (F) ELISA analysis confirmed that M1i-124 disrupts the interaction between BCL10 and MALT1 in dose dependent fashion (left). […] Circles highlight sites that differ from parent compound, M1i-124. […]

In the case of `COc1ccc(CNS(=O)(=O)c2ccc(Cc3ccc(S(=O)(=O)NCc4ccc(OC)cc4)cc3)cc2)cc1` [M1i-124d1], the IC50 turned out to be 8.45 µM.
